Experimental data reported in ChEMBL document CHEMBL1155398, “Design and evaluation of Trypanosoma brucei metacaspase inhibitors” (Bioorg Med Chem Lett, 2010).
Activity calls are given as the source filed them. The rule behind the calls is not given here.

Tests used:
Metacaspase-2 = molecular target: T1, Metacaspase-2 (Trypanosoma brucei, UniProt Q8T8E7); assay: Inhibition of Trypanosoma brucei MAC2
T1 sequence (Q8T8E7 whole entry): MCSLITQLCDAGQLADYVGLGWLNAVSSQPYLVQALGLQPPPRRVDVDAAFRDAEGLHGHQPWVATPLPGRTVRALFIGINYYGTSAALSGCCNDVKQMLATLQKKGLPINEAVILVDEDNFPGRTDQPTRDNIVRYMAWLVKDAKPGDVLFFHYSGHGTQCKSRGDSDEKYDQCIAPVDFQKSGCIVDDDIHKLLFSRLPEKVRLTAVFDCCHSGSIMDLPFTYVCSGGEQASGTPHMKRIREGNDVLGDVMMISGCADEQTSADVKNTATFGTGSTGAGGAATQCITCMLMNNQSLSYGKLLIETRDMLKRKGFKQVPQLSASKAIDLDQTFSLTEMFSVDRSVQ

Trypanosoma cruzi = assay: Antiparasitic activity against Trypanosoma cruzi amastigotes; format: functional, organism-based
Leishmania infantum = assay: Antiparasitic activity against Leishmania infantum amastigotes; format: functional, organism-based
[1] = test system: Trypanosoma brucei brucei; assay: Antiparasitic activity against Trypanosoma brucei brucei bloodstream form; format: functional, organism-based
Plasmodium falciparum = assay: Antiparasitic activity against Plasmodium falciparum ring stage and schizont; format: functional, organism-based
MRC5 = assay: Cytotoxicity against human MRC5 cells; format: cell-based
[2] = molecular target: T2, Metacaspase-3 (Trypanosoma brucei) (UniProt Q8T8E6); assay: Inhibition of Trypanosoma brucei MAC3
T2 sequence (whole entry): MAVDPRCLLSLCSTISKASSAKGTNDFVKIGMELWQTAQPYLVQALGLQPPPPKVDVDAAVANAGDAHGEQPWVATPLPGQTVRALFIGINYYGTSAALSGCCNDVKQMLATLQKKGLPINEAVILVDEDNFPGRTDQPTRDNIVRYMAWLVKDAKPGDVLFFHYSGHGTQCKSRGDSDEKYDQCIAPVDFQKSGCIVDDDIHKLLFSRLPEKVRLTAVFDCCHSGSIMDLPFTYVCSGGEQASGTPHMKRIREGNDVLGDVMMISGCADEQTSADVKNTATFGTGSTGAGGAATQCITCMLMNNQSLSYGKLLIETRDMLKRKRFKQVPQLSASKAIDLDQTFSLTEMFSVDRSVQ

Caspase-3 (Homo sapiens) = molecular target: T3, Caspase-3 (Homo sapiens) (UniProt P42574); assay: Inhibition of human caspase 3
T3 sequence (whole entry): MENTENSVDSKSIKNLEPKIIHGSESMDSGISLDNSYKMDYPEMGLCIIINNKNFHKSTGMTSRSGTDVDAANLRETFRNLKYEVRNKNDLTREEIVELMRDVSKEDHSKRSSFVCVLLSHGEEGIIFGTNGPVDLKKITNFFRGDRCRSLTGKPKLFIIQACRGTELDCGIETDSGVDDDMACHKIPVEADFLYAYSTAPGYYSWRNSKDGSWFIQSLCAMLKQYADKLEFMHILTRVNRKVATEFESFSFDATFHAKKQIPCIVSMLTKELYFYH

SMILES | IC50 (Metacaspase-2) | IC50 (Trypanosoma cruzi) | IC50 (Leishmania infantum) | IC50 [1] | IC50 (Plasmodium falciparum) | IC50 (MRC5) | inhibition [2] | inhibition (Caspase-3 (Homo sapiens))
CC(C)C(NC(=O)OCc1ccccc1)C(=O)N[C@@H](CCCNC(=N)N)C(=O)c1nc2ccccc2s1 (some centres not stated) | 1.1 µM | 7.3 µM | > 64 µM | 11.2 µM | 3.3 µM | 32.6 µM |  | 
N#CCN(CCCCN1CCN(C(c2ccc(F)cc2)c2ccc(F)cc2)CC1)C(=O)OCc1ccccc1 | > 100 µM | 2.6 µM | 5.9 µM | 2.1 µM | 7.6 µM | 11.3 µM |  | 
N#CCN(CCCCn1ccnc1)C(=O)OCc1ccccc1 | > 100 µM | 35.7 µM | > 64 µM | > 64 µM | 17.2 µM | > 64 µM |  | 
N#CCN(C(=O)OCc1ccccc1)C1CCNCC1 | > 100 µM | 34.6 µM | > 64 µM | 32.5 µM | 28 µM | > 64 µM |  | 
N#C[C@H](Cc1ccc(N)cc1)NC(=O)OCc1ccccc1 | > 100 µM | 28.6 µM | > 64 µM | 30.3 µM | 16.6 µM | > 64 µM |  | 
CC(C)CC(NC(=O)OCc1ccccc1)C(=O)N[C@@H](CCCNC(=N)N)C(=O)c1nc2ccccc2s1 (some centres not stated) | 1.4 µM | 5.6 µM | 36.8 µM | 5.7 µM | 2.6 µM | 29 µM |  | 
N=C(N)NCCC[C@@H](/C=C/S(=O)(=O)c1ccccc1)NC(=O)OCc1ccccc1 | 3.9 µM | 19 µM | > 64 µM | 45.3 µM | 3.4 µM | > 64 µM |  | 
N=C(N)NCCC[C@H](NC(=O)OCc1ccccc1)C(=O)c1ccccn1 | 62 µM | > 64 µM | > 64 µM | > 64 µM | > 64 µM | > 64 µM | Active | 
N=C(N)NCCC[C@H](NC(=O)OCc1ccccc1)C(=O)c1nc2ccccc2s1 | 0.6 µM | 20.9 µM | > 64 µM | 32.9 µM | 8 µM | > 64 µM | Active | inactive
N#CCN(CCCCN1CCN(c2ccc(F)cc2)CC1)C(=O)OCc1ccccc1 | > 100 µM | 7 µM | > 64 µM | 22.6 µM | > 64 µM | > 64 µM |  | 
N#C[C@H](Cc1ccc(NC(=N)N)cc1)NC(=O)OCc1ccccc1 | > 100 µM | 27.2 µM | > 64 µM | > 64 µM | 25.4 µM | > 64 µM |  | 
N#CCN(CCCCN1CCCCC1)C(=O)OCc1ccccc1 | > 100 µM | > 64 µM | > 64 µM | > 64 µM | 6.9 µM | > 64 µM |  | 
N=C(N)NCCC[C@H](NC(=O)OCc1ccccc1)C(=O)c1nccs1 | 2.2 µM | 38.7 µM | > 64 µM | > 64 µM | 24.7 µM | > 64 µM | Active | 
NCCCC[C@H](NC(=O)OCc1ccccc1)C(=O)c1nc2ccccc2s1 | 1.6 µM | 10.8 µM | 22.8 µM | 10.6 µM | 3 µM | 20 µM |  | 
N#C[C@H](CCCNC(=N)N)NC(=O)OCc1ccccc1 | 1.9 µM | > 64 µM | > 64 µM | > 64 µM | 50.2 µM | > 64 µM | Active | inactive
N#CCN(CCCCN1CCCC1)C(=O)OCc1ccccc1 | > 100 µM | > 64 µM | > 64 µM | 52.1 µM | 20.5 µM | > 64 µM |  | 
Cn1c(C(=O)[C@H](CCCNC(=N)N)NC(=O)OCc2ccccc2)nc2ccccc21 | 38.4 µM | 28.3 µM | > 64 µM | 32.5 µM | 7.1 µM | > 64 µM | Active | inactive
N#CCN(CCCCO)C(=O)OCc1ccccc1 | > 100 µM | > 64 µM | > 64 µM | > 64 µM | > 64 µM | > 64 µM |  | 
NC(N)=NCCCC[C@H](NC(=O)OCc1ccccc1)C(=O)c1nc2ccccc2s1 | 4 µM | 5.5 µM | 45.4 µM | 11.4 µM | 5.6 µM | 19 µM |  | 
